The values below come from patent publication US20250295628A1 (priority 2022, published 2025).

The nature of the data set: Solid stability of compositions 1-11 and compounds 1A-11A: main component content over time under different conditions (Example 37, Table 32). It counts as physicochemical. The method, then: Compositions 1-11 and compounds 1A-11A were placed at environments of −25° C., 5±3° C., 25±2° C./60±5% RH, 40±2° C./75±5% RH, 60° C. for 0 d, 5 d and 10 d (d refers to day), respectively, and changes of the main component content (the main component content of 0 day was converted to 100%) were measured, the results are shown in Table 32.

The mark [1] stands for this setting: 5 ± 3° C., 0 d (0 day content converted to 100%).
Setting [2] is: 25 ± 2° C./60 ± 5% RH, 0 d (0 day content converted to 100%).
The mark [3] stands for this setting: 40 ± 2° C./75 ± 5% RH, 0 d (0 day content converted to 100%).
The mark [4] stands for this setting: 60° C., 0 d (0 day content converted to 100%).
Setting [5] is: −25° C., 0 d (0 day content converted to 100%).

On to `O=C([O-])CCC(C(=O)[O-])N(CC(O)C(O)C(O)C(O)CO)C(=S)[S][Na].[Na+].[Na+]` (stereo not drawn) [Compound 5A], for which the main component content under setting [1] is 100%; the main component content (5 ± 3° C., 5 d) amounted to 99.6%; the main component content (5 ± 3° C., 10 d) was 98.7%; the main component content under setting [2] is 100%; the main component content (25 ± 2° C./60 ± 5% RH, 5 d) was determined as 97.8%; the main component content (25 ± 2° C./60 ± 5% RH, 10 d) was found to be 95.7%. Further, the main component content came out at 100% under setting [3]; 97.9% (40 ± 2° C./75 ± 5% RH, 5 d); 91.8% (40 ± 2° C./75 ± 5% RH, 10 d); 100% under setting [4]; 80.3% (60° C., 5 d); 78.7% (60° C., 10 d). Further, the main component content reads like this: under setting [5], 100%; (−25° C., 5 d) 100.7%; (−25° C., 10 d) 101.1%.

As for `O=C([O-])C(CCSCO)N(CC(O)C(O)C(O)C(O)CO)C(=S)[S][Na].[Na+]` (stereo not drawn) [Compound 4A], the main component content came out at 100% under setting [1]; 97.6% (5 ± 3° C., 5 d); 95.3% (5 ± 3° C., 10 d); 100% under setting [2]; 92.8% (25 ± 2° C./60 ± 5% RH, 5 d); 91.7% (25 ± 2° C./60 ± 5% RH, 10 d). The main component content is recorded as 100% under setting [3]; 83.4% (40 ± 2° C./75 ± 5% RH, 5 d); 80.8% (40 ± 2° C./75 ± 5% RH, 10 d); 100% under setting [4]; 68.0% (60° C., 5 d); 64.7% (60° C., 10 d). The main component content by setting is: under setting [5], 100%; (−25° C., 5 d) 100.2%; (−25° C., 10 d) 100.5%.

`O=C([O-])C(CF)N(CC(O)C(O)C(O)C(O)CO)C(=S)[S][Na].[Na+]` (stereo not drawn) [Compound 1A] returned a main component content under setting [1] of 100%; a main component content (5 ± 3° C., 5 d) of 99.5%; a main component content (5 ± 3° C., 10 d) of 99.1%; a main component content under setting [2] of 100%; a main component content (25 ± 2° C./60 ± 5% RH, 5 d) of 97.3%; a main component content (25 ± 2° C./60 ± 5% RH, 10 d) of 92.1%. Besides, the main component content is listed as 100% under setting [3]; 83.5% (40 ± 2° C./75 ± 5% RH, 5 d); 81.5% (40 ± 2° C./75 ± 5% RH, 10 d); 100% under setting [4]; 59.4% (60° C., 5 d); 58.7% (60° C., 10 d). For the same compound, the main component content is reported as 100% under setting [5]; 100.2% (−25° C., 5 d); 100.1% (−25° C., 10 d).

As to `O=C([O-])C(CC1CCCCC1)N(CC(O)C(O)C(O)C(O)CO)C(=S)[S][Na].[Na+]` (stereo not drawn) [Compound 6A], the main component content is on record as 100% under setting [1]; 98.8% (5 ± 3° C., 5 d); 99.1% (5 ± 3° C., 10 d); 100% under setting [2]; 93.1% (25 ± 2° C./60 ± 5% RH, 5 d); 85.3% (25 ± 2° C./60 ± 5% RH, 10 d). The main component content is, setting by setting: under setting [3], 100%; (40 ± 2° C./75 ± 5% RH, 5 d) 91.5%; (40 ± 2° C./75 ± 5% RH, 10 d) 91.0%; under setting [4], 100%; (60° C., 5 d) 60.4%; (60° C., 10 d) 57.8%. The main component content was determined as 100% under setting [5]; 100.6% (−25° C., 5 d); 99.9% (−25° C., 10 d).

The compound `O=C([O-])C(CO)N(CC(O)C(O)C(O)C(O)CO)C(=S)[S][K].[K+]` (stereo not drawn) [Compound 10A] registered a main component content under setting [1] of 100%; a main component content (5 ± 3° C., 5 d) of 99.5%; a main component content (5 ± 3° C., 10 d) of 98.1%; a main component content under setting [2] of 100%; a main component content (25 ± 2° C./60 ± 5% RH, 5 d) of 97.0%; a main component content (25 ± 2° C./60 ± 5% RH, 10 d) of 96.1%. The main component content reads like this: under setting [3], 100%; (40 ± 2° C./75 ± 5% RH, 5 d) 92.0%; (40 ± 2° C./75 ± 5% RH, 10 d) 90.3%; under setting [4], 100%; (60° C., 5 d) 82.0%; (60° C., 10 d) 79.1%. The main component content by setting is: under setting [5], 100%; (−25° C., 5 d) 100.5%; (−25° C., 10 d) 101.4%.

Turning to `O=C([O-])C(Cc1cccs1)N(CC(O)C(O)C(O)C(O)CO)C(=S)[S][Na].[Na+]` (stereo not drawn) [Compound 8A], the main component content was 100% under setting [1]; 97.9% (5 ± 3° C., 5 d); 96.2% (5 ± 3° C., 10 d); 100% under setting [2]; 95.5% (25 ± 2° C./60 ± 5% RH, 5 d); 93.3% (25 ± 2° C./60 ± 5% RH, 10 d). Moreover, the main component content is recorded as 100% under setting [3]; 94.7% (40 ± 2° C./75 ± 5% RH, 5 d); 89.6% (40 ± 2° C./75 ± 5% RH, 10 d); 100% under setting [4]; 80.4% (60° C., 5 d); 79.7% (60° C., 10 d). Moreover, the main component content under setting [5] was 100%; the main component content (−25° C., 5 d) came out at 101.1%; the main component content (−25° C., 10 d) was found to be 100.3%.

For the compound `O=C([O-])C(Cc1cncs1)N(CC(O)C(O)C(O)C(O)CO)C(=S)[S][Na].[Na+]` (stereo not drawn) [Compound 9A], the main component content under setting [1] is given as 100%; the main component content (5 ± 3° C., 5 d) was 97.2%; the main component content (5 ± 3° C., 10 d) was determined as 96.0%; the main component content under setting [2] was determined as 100%; the main component content (25 ± 2° C./60 ± 5% RH, 5 d) was 98.9%; the main component content (25 ± 2° C./60 ± 5% RH, 10 d) came to 96.0%. The compound also gave a main component content under setting [3] of 100%; a main component content (40 ± 2° C./75 ± 5% RH, 5 d) of 92.6%; a main component content (40 ± 2° C./75 ± 5% RH, 10 d) of 91.5%; a main component content under setting [4] of 100%; a main component content (60° C., 5 d) of 84.5%; a main component content (60° C., 10 d) of 79.3%. Also, the main component content is, setting by setting: under setting [5], 100%; (−25° C., 5 d) 100.7%; (−25° C., 10 d) 100.5%.

For `CC(C)C(C(=O)[O-])N(CC(O)C(O)C(O)C(O)CO)C(=S)[S][Na].[Na+]` (stereo not drawn) [Compound 2A], the main component content was 100% under setting [1]; 99.5% (5 ± 3° C., 5 d); 98.1% (5 ± 3° C., 10 d); 100% under setting [2]; 91.4% (25 ± 2° C./60 ± 5% RH, 5 d); 82.5% (25 ± 2° C./60 ± 5% RH, 10 d). Besides, the main component content under setting [3] is given as 100%; the main component content (40 ± 2° C./75 ± 5% RH, 5 d) stood at 94.1%; the main component content (40 ± 2° C./75 ± 5% RH, 10 d) amounted to 90.1%; the main component content under setting [4] turned out to be 100%; the main component content (60° C., 5 d) is on record as 49.9%; the main component content (60° C., 10 d) amounted to 48.8%. The main component content under setting [5] is on record as 100%; the main component content (−25° C., 5 d) was 100.2%; the main component content (−25° C., 10 d) came to 99.8%.

Take `COc1ccc(CC(C(=O)[O-])N(CC(O)C(O)C(O)C(O)CO)C(=S)[S][Na])cc1.[Na+]` (stereo not drawn) [Compound 7A]: the main component content under setting [1] worked out at 100%; the main component content (5 ± 3° C., 5 d) was determined as 100.0%; the main component content (5 ± 3° C., 10 d) came to 99.1%; the main component content under setting [2] came to 100%; the main component content (25 ± 2° C./60 ± 5% RH, 5 d) was 99.3%; the main component content (25 ± 2° C./60 ± 5% RH, 10 d) was 98.0%. Also, the main component content was found to be 100% under setting [3]; 98.7% (40 ± 2° C./75 ± 5% RH, 5 d); 96.5% (40 ± 2° C./75 ± 5% RH, 10 d); 100% under setting [4]; 80.2% (60° C., 5 d); 80.1% (60° C., 10 d). Also, the main component content by setting is: under setting [5], 100%; (−25° C., 5 d) 100.1%; (−25° C., 10 d) 100.6%.
